Experimental data taken from ChEMBL document CHEMBL4138057, “Structure-guided optimization of quinoline inhibitors of Plasmodium N-myristoyltransferase” (Medchemcomm, 2017).

Target: T1, Glycylpeptide N-tetradecanoyltransferase (Plasmodium falciparum (isolate 3D7), UniProt Q8ILW6)
T1 sequence (Q8ILW6 whole entry): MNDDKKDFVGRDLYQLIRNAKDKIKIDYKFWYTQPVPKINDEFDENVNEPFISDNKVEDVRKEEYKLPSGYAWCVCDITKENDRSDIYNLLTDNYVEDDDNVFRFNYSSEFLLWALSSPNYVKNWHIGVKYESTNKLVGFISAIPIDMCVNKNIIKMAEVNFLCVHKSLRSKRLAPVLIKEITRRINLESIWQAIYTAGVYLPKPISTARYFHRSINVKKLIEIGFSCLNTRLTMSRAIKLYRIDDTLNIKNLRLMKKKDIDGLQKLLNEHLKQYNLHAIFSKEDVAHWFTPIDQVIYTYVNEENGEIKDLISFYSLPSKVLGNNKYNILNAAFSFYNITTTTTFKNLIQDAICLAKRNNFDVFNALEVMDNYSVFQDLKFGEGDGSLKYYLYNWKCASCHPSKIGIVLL
Test: Inhibition of Plasmodium falciparum NMT preincubated for 10 to 20 mins followed by Hs pp60src (2 to 16 residues) substrate addition measured after 60 mins by CPM-based fluorescence assay
Settings: read-out: Ki(app)

| Ki [µM] | SMILES |
| --- | --- |
| > 10 | CCOC(=O)c1cnc2ccc(OCc3ccccc3)cc2c1SCCC#N |
| > 10 | CCOC(=O)c1cnc2ccc(OCc3ccccc3)cc2c1S(=O)(=O)CC |
| > 10 | CCSc1c(CO)cnc2ccc(OCc3ccccc3)cc12 |
